Measured values taken from ChEMBL document CHEMBL5550200, “Back-Pocket Optimization of 2-Aminopyrimidine-Based Macrocycles Leads to Potent EPHA2/GAK Kinase Inhibitors” (J Med Chem, 2024).
pEC50: −log10 of the molar value.

Columns and labels:
dengue virus type 2 = test: Antiviral activity against DENV-2 New Guinea C infected in human Huh-7 cells assessed as reduction in virus induced cytopathic effect preincubated with cells for 1 hr followed by viral infection and measured after 45 to 48 hrs by luciferase assay; type: functional, organism-based; conditions: for EC90: time 45-48 hrs
Ephrin type-A receptor 2 = Ephrin type-A receptor 2 (Homo sapiens, UniProt P29317)
Description: Induction of stabilization of recombinant EPHA2 (D596 to G900 residues) (unknown origin) expressed in Escherichia coli rosetta BL21(D3)-R3-pRARE2 competent cells assessed as change in melting temperature by differential scanning fluorimetry assay

[1] = molecular target: Ephrin type-A receptor 7 (Homo sapiens) (UniProt Q15375); test: Induction of stabilization of recombinant EPHA7 (unknown origin) assessed as change in melting temperature by differential scanning fluorimetry assay
[2] = molecular target: T1, Ephrin type-B receptor 3 (Homo sapiens) (UniProt P54753); test: Induction of stabilization of recombinant EPHB3 (unknown origin) assessed as change in melting temperature by differential scanning fluorimetry assay
T1 sequence (whole entry): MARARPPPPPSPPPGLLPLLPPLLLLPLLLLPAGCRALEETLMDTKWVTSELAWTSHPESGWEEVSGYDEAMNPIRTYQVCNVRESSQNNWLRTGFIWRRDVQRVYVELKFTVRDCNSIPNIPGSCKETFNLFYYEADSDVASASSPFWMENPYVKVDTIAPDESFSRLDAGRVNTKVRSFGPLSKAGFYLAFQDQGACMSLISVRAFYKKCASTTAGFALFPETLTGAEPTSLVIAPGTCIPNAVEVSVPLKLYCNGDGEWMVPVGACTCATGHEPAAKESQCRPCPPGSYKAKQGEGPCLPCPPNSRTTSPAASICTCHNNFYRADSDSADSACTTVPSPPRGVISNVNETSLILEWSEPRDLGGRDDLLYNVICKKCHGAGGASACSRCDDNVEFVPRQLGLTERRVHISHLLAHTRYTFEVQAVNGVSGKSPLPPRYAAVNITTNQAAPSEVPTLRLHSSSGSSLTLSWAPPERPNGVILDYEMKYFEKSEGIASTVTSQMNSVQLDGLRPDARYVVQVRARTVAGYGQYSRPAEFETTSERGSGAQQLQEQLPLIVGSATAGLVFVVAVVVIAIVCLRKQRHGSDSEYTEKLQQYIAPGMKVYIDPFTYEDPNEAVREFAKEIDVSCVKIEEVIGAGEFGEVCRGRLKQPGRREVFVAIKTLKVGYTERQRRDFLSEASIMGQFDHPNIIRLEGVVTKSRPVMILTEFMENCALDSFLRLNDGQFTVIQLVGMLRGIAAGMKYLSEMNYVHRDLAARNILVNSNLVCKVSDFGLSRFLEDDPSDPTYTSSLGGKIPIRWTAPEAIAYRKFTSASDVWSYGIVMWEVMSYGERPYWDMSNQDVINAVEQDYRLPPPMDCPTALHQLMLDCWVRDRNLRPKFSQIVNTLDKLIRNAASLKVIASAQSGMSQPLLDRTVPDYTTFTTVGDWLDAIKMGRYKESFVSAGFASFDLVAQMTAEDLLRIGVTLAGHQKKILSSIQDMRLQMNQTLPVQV

[3] = molecular target: Fibroblast growth factor receptor 2 (Homo sapiens) (UniProt P21802)
Description: Induction of stabilization of recombinant FGFR2 (unknown origin) assessed as change in melting temperature by differential scanning fluorimetry assay

[4] = molecular target: Ephrin type-A receptor 5 (Homo sapiens) (UniProt P54756)
Description: Induction of stabilization of recombinant EPHA5 (unknown origin) assessed as change in melting temperature by differential scanning fluorimetry assay

Ephrin type-A receptor 4 = Ephrin type-A receptor 4 (Homo sapiens, UniProt P54764); test: Induction of stabilization of recombinant EPHA4 (unknown origin) assessed as change in melting temperature by differential scanning fluorimetry assay
[5] = molecular target: Fibroblast growth factor receptor 1 (Homo sapiens, UniProt P11362)
Description: Induction of stabilization of recombinant FGFR1 (unknown origin) assessed as change in melting temperature by differential scanning fluorimetry assay

[6] = molecular target: Vascular endothelial growth factor receptor 1 (Homo sapiens, UniProt P17948); test: Induction of stabilization of recombinant FLT1 (unknown origin) assessed as change in melting temperature by differential scanning fluorimetry assay
[7] = molecular target: T2, Ephrin type-B receptor 1 (Homo sapiens) (UniProt P54762); test: Induction of stabilization of recombinant EPHB1 (unknown origin) assessed as change in melting temperature by differential scanning fluorimetry assay
T2 sequence (whole entry): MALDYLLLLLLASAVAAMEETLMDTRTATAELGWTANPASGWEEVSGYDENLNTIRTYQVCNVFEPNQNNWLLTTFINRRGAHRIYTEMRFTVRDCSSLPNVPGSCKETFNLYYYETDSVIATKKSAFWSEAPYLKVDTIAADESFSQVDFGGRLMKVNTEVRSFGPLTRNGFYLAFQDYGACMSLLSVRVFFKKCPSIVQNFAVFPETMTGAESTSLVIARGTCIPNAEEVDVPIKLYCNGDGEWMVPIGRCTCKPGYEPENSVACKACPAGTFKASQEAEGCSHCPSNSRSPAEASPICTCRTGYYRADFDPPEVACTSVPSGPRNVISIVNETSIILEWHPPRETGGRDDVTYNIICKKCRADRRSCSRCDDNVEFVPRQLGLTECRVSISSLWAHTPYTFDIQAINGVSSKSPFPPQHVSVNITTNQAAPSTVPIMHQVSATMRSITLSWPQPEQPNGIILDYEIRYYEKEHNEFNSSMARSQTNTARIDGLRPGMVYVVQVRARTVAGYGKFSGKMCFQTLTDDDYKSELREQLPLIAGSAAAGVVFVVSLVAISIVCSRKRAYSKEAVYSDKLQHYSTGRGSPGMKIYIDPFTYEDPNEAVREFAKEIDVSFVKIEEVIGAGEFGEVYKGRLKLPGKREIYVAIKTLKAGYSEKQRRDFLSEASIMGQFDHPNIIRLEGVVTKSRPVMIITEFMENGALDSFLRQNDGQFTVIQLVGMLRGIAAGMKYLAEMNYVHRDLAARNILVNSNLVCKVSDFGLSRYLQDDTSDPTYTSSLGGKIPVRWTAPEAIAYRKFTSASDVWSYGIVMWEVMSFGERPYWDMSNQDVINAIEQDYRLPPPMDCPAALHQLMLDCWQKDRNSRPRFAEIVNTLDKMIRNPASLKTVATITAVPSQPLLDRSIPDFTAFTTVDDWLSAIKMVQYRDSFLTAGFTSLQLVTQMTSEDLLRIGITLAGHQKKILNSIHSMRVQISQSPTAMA

Sequence of Ephrin type-A receptor 2 (P29317 whole entry): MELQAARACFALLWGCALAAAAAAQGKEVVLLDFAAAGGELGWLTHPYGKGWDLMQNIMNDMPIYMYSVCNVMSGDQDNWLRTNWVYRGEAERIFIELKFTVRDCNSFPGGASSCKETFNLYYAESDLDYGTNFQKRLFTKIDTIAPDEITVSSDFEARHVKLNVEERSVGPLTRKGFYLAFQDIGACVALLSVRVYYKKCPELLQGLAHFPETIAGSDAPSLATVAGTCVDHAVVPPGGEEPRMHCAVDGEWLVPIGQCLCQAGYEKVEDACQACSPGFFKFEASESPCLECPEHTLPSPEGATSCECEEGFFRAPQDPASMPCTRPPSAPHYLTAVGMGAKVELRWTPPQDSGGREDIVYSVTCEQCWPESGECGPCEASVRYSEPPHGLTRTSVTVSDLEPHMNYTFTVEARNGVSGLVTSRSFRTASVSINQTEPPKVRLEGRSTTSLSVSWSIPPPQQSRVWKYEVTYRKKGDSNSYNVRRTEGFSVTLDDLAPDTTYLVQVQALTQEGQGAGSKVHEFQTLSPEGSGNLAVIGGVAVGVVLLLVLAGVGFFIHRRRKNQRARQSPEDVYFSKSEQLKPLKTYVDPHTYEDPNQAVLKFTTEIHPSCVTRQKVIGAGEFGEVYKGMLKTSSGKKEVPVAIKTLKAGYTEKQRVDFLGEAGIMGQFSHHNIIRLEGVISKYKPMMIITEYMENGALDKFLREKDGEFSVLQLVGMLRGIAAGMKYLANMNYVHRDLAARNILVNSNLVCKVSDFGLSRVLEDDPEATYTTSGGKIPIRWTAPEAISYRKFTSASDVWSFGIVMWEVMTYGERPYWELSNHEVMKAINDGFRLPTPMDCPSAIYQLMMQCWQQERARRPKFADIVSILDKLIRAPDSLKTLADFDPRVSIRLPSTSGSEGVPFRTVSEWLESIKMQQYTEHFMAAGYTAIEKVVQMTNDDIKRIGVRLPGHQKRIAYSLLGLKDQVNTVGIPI
Sequence of Ephrin type-A receptor 7 (Homo sapiens) (Q15375 28-998 limits assumed): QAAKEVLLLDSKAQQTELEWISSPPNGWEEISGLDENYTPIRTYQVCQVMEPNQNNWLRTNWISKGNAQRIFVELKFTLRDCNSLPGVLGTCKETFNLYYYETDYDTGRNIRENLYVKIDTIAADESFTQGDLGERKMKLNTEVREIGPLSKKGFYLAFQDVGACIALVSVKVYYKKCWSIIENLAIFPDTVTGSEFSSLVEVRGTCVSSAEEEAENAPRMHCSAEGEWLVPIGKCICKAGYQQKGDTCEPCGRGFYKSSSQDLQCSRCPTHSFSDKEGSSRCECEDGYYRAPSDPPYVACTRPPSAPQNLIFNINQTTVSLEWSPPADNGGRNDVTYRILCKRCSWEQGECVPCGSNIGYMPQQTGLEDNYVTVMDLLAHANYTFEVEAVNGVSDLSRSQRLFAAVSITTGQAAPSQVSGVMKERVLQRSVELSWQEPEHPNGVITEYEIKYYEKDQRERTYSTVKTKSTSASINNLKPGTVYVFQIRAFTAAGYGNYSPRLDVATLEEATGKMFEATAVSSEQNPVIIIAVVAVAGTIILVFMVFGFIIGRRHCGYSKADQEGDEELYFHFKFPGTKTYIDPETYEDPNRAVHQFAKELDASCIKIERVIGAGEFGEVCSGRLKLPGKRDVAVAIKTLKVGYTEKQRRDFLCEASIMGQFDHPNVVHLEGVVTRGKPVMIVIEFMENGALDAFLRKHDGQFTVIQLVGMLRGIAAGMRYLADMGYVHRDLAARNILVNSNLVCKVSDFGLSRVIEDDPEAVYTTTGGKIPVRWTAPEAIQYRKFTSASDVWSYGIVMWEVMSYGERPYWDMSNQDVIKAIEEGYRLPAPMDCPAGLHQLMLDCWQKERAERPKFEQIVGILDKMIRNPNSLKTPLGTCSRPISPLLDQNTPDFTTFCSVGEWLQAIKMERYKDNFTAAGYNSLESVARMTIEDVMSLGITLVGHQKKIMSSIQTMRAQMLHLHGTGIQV
Sequence of Vascular endothelial growth factor receptor 1 (P17948 whole entry): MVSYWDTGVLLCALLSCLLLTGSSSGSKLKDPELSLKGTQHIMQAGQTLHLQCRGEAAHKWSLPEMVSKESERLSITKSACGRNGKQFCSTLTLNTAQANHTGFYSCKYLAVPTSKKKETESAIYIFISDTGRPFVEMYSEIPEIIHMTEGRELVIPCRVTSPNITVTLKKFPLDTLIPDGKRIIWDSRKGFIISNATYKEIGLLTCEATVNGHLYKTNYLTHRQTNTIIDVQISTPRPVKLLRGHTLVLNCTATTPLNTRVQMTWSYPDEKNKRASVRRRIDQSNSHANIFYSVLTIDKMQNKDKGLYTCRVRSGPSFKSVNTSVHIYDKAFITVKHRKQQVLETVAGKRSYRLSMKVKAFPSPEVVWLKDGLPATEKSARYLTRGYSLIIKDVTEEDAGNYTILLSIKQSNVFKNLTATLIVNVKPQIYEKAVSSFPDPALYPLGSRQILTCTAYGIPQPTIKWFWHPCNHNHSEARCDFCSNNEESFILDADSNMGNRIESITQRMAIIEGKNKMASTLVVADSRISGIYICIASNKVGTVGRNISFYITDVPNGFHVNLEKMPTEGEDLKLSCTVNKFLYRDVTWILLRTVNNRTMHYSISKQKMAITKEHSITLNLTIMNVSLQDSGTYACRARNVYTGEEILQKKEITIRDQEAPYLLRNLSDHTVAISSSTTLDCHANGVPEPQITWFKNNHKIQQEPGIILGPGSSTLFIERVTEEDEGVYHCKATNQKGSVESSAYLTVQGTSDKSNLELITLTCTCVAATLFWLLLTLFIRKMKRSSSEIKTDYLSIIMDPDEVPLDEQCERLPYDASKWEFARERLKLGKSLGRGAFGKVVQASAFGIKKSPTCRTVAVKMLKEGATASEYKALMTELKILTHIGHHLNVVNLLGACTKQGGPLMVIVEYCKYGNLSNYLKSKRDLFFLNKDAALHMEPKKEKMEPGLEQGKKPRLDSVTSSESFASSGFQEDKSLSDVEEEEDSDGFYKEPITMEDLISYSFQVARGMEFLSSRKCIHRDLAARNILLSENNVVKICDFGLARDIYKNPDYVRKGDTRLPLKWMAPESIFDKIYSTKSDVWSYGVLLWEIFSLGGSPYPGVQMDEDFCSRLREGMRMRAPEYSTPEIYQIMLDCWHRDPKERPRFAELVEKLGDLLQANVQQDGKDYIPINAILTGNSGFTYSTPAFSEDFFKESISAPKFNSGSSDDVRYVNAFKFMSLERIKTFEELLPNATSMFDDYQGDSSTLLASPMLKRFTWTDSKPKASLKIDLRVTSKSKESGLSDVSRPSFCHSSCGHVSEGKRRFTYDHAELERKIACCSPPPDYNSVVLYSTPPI
Sequence of Fibroblast growth factor receptor 1 (P11362 22-822 limits assumed): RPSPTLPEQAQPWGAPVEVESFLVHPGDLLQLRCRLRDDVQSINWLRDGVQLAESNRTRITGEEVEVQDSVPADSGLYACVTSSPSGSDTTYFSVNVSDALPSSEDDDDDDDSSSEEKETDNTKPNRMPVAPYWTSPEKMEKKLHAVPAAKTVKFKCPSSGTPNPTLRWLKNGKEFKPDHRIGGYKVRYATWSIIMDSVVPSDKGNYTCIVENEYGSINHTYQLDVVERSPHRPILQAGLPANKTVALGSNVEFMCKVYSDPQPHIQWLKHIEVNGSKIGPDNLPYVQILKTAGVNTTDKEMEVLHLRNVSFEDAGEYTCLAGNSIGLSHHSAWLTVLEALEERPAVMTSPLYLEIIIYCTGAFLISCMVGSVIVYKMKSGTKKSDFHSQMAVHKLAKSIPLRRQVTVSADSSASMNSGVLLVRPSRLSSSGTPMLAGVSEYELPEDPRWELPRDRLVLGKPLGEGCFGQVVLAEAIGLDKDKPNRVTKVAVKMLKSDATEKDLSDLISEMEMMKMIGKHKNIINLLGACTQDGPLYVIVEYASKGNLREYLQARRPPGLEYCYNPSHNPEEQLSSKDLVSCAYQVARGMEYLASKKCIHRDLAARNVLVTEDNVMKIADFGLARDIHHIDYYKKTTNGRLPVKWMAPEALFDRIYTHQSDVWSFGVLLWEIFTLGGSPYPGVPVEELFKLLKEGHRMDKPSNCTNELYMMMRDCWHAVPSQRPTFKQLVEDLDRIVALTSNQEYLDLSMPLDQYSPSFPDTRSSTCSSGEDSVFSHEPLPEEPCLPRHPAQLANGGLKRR
Sequence of Ephrin type-A receptor 5 (Homo sapiens) (P54756 whole entry): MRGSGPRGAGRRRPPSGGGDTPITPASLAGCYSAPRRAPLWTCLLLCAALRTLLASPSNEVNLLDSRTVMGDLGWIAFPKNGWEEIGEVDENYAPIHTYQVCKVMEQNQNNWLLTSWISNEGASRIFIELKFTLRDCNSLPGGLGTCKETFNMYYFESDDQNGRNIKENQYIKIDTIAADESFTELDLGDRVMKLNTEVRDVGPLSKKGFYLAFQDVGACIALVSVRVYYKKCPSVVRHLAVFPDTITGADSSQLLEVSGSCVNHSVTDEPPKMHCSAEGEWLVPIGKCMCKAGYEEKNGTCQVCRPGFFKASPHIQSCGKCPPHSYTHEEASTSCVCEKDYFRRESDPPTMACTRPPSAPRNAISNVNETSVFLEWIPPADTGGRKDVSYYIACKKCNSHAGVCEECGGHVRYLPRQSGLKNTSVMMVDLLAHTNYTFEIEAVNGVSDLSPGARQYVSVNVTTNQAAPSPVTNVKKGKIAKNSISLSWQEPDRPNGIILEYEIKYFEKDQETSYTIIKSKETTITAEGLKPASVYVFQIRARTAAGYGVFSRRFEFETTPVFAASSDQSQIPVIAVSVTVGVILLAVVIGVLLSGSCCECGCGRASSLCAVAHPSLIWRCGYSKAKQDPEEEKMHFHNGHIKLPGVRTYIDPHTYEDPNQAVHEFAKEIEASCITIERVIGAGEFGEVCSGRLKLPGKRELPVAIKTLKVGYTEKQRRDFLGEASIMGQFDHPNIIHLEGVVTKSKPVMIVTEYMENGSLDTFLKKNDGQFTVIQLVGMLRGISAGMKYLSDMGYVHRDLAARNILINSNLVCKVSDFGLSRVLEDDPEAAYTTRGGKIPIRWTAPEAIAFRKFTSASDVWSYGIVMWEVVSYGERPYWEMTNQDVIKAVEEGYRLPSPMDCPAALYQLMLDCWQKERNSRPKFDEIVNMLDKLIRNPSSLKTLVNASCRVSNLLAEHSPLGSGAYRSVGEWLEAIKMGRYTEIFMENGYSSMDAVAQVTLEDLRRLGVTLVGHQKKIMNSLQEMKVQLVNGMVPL

Row | pEC50 (dengue virus type 2) | EC90 (dengue virus type 2) [µM] | deltaTm (Ephrin type-A receptor 2) [K] | deltaTm [1] [K] | deltaTm [2] [K] | deltaTm [3] [K] | deltaTm [4] [K] | deltaTm (Ephrin type-A receptor 4) [K] | deltaTm [5] [K] | deltaTm [6] [K] | deltaTm [7] [K] | Compound
1 | < 5.00 | > 10 | 6.9 | 0.4 | 3.9 | 3.6 | 5 | 2.8 | 2.7 | 3.4 | 3.3 | COc1cc(-c2cnc3nc2NCCCNS(=O)(=O)c2cccc(c2)N3)c(F)cc1F
2 | 5.74 | 2.9 | 8.8 | -2.5 | 4.8 | 5.8 | 5.4 | 4.9 | 5.2 | 8.8 | 5.6 | COc1c(F)ccc(-c2cnc3nc2NCCCNS(=O)(=O)c2cccc(c2)N3)c1F
3 | 5.43 | 9 | 6.2 | 2.4 | 3.2 | 3.9 | 3.4 | 2.9 | 2.8 | 3.6 | 2.2 | O=S1(=O)NCCCNc2nc(ncc2-c2ccc(Cl)c(Cl)c2)Nc2cccc1c2
4 | < 5.00 | > 10 | 7.9 | 0.3 | 4.2 | 3 | 4.7 | 3.3 | 1.9 | 3 | 3.5 | COc1cc(-c2cnc3nc2NCCCNS(=O)(=O)c2cc(ccc2O)N3)ccc1F
